Some results are limits rather than exact numbers.

Assay [1] deals with full-length RORγt in Jurkat cells (Homo sapiens (Human), UniProt P51449). Put plainly: RORγt 5×RORE Assay in Jurkat Cells (Assay 2). Type of assay: cell-based. The note with it: 5×RORE Nanoluc luciferase reporter. The protocol:
RORγt 5×RORE Assay in Jurkat Cells (Assay 2)
Compounds described herein were tested for RORγ inverse agonist activity in a cell-based, transcriptional activity assay. Secreted Nanoluc® luciferase was used as a reporter for transcriptional activity of the full-length RORγt in Jurkat cells (ATCC, Cat. #TIB-152). […] (Promega, Cat. #N1021) using KpnI and HindIII restriction sites. […] After 5-6 hrs of incubation at 37° C./5% CO2, the cells were collected, resuspended in phenol-red free RPMI media containing 10% (v/v) delipidated FBS (Hyclone, Cat. #SH30855.03) and dispensed into 96-well clear bottom tissue culture plates (CoStar, Cat. #3603), at 80,000 cells per well. Tested compounds were added to the cells in the same media (final concentration of DMSO was 0.1% (v/v)), and the plates were incubated at 37° C./5% CO2 for 16-18 hrs. Luciferase activity in the conditioned supernatants was determined with NanoGlo® assay reagents (Promega, Cat. #N1130).
A general note: In a reporter assay the amount or activity of a reporter protein is the signal.

Assay [2] addresses recombinant RORγ Ligand Binding Domain (LBD) protein (Homo sapiens (Human), UniProt P51449). Put plainly: Radio-Ligand RORγ Binding Assay (Assay 1). Particulars: competition with 25-hydroxy [26,27-3H]-cholesterol, SPA. The protocol: Radio-Ligand RORγ Binding Assay (Assay 1)
Compounds described herein were tested for ability to bind to RORγ in a cell-free competition assay with commercially available radio-ligand (RL), 25-hydroxy [26,27-^3H]-cholesterol (PerkinElmer, Cat. #NET674250UC), for a ligand binding site on a recombinant RORγ Ligand Binding Domain (LBD) protein expressed as a 6×His-Glutathione-S-Transferase (GST) fusion. The assay was performed in 96-well SPA plates (PerkinElmer, Cat. #1450-401) in 50 mM HEPES buffer, pH 7.4, containing 150 mM NaCl, 5 mM MgCl2, 10% (v/v) glycerol, 2 mM CHAPS, 0.5 mM β-octylglucopyranoside and 5 mM DTT. Tested compounds were dissolved in DMSO, and semi-log (3.162×) serial dilutions of the compounds were prepared in the same solvent. Two μL of the DMSO solutions were mixed with 28 μL of 8.6 nM 25-hydroxy [26,27-^3H]-cholesterol and 50 μL of 24 nM RORγ LBD. The plate was shaken at 700 rpm for 20 min and incubated for 10 min at rt, after which 40 μL of poly-Lys YSi SPA beads (PerkinElmer, Cat. #RPNQ0010) were added to achieve […] of the beads per well. The plate was incubated on an orbital shaker for 20 min and then for 10 min without agitation at rt. SPA signal for tritium beta radiation was registered on PerkinElmer Microbeta plate reader. […] The percent inhibition vs. concentration data were fit into a four-parameter model, and IC50 values were calculated from the fit as the concentrations corresponding to the inflection points on the dose-response curves. Inhibitory constants (Ki) were calculated using the following equation, where [RL] is the concentration in the assay and KD is a dissociation constant of 25-hydroxy [26,27-^3H]-cholesterol: […]

Chain of recombinant RORγ Ligand Binding Domain (LBD) protein (P51449 269-508): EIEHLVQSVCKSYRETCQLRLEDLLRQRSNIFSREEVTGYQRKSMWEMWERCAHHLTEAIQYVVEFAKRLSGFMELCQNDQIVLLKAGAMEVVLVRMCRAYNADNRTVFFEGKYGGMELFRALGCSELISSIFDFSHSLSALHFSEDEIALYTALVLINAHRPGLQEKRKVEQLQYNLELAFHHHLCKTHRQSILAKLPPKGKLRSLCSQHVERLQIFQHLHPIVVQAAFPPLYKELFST
Chain of full-length RORγt in Jurkat cells (P51449 other isoform, or with tags, fused parts or gaps): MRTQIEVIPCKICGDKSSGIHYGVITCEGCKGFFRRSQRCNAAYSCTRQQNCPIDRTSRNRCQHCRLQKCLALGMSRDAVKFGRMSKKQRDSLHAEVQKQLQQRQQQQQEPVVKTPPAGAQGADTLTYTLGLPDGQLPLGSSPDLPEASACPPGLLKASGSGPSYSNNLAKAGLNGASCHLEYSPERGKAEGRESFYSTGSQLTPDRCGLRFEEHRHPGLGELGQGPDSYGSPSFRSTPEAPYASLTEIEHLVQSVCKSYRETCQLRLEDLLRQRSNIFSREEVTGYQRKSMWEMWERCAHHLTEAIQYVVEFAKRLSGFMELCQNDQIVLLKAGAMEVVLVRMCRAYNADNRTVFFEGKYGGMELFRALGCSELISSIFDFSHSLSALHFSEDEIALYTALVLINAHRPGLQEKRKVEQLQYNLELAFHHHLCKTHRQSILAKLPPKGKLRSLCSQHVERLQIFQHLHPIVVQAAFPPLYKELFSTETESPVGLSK

As usually defined, the IC50 is the concentration at which inhibition is half-maximal. Lower therefore signals greater potency. By Ki is commonly meant the dissociation constant of the complex between target and ligand, obtained from inhibition or displacement. As to `CCS(=O)(=O)c1ccc(CNC(=O)c2ccc3c(c2)nc(C(F)(F)F)n3Cc2cccc3occc23)cc1` [I-95, 1-(benzofuran-4-ylmethyl)-N-(4-(ethylsulfonyl)benzyl)-2-(trifluoromethyl)-1H-benzo[d]imidazole-5-carboxamide], the concentration for half-maximal inhibition (IC50) in assay [1] was < 0.1 µM. The inhibition constant Ki in assay [2] is < 0.1 µM.
In the case of `CS(=O)(=O)c1ccc([C@@H](CO)NC(=O)c2ccc3c(c2)nc(C(F)F)n3Cc2cccc3c2OC(F)(F)O3)cc1` [I-23.2, (S)-1-((2,2-difluorobenzo[d][1,3]dioxol-4-yl)methyl)-2-(difluoromethyl)-N-(2-hydroxy-1-(4-(methylsulfonyl)phenyl)ethyl)-1H-benzo[d]imidazole-5-carboxamide], the half-inhibitory concentration (IC50) in assay [1] lay within 0.1 to 1 µM. Further, the inhibitory constant (Ki) in assay [2] was < 0.1 µM.
Consider “1-((2,2-difluorobenzo[d][1,3]dioxol-4-yl)methyl)-2-(difluoromethyl)-N-(4-((2-hydroxyethyl)sulfonyl)benzyl)-1H-benzo[d]imidazole-5-carboxamide [I-44]”, for which the IC50 in assay [1] was < 0.1 µM. Also, the inhibition constant (Ki) in assay [2] was < 0.1 µM.
Consider `CCS(=O)(=O)c1ccc([C@H](CO)NC(=O)c2ccc3c(c2)nc(C(F)(F)F)n3Cc2cccc3c2OCC3)cc1` [I-80, (R)-1-((2,3-dihydrobenzofuran-7-yl)methyl)-N-(1-(4-(ethylsulfonyl)phenyl)-2-hydroxyethyl)-2-(trifluoromethyl)-1H-benzo[d]imidazole-5-carboxamide], for which, in assay [1], the IC50 lay within 0.1 to 1 µM. For the same compound, in assay [2], the inhibition constant (Ki) was < 0.1 µM.
In the same order, the values of `CCS(=O)(=O)c1ccc([C@@H](CO)NC(=O)c2ccc3c(c2)nc(C(F)(F)F)n3Cc2cccc3c2OC(F)(F)O3)nc1` [I-130.2, (S)-1-((2,2-difluorobenzo[d][1,3]dioxol-4-yl)methyl)-N-(1-(5-(ethylsulfonyl)pyridin-2-yl)-2-hydroxyethyl)-2-(trifluoromethyl)-1H-benzo[d]imidazole-5-carboxamide] are < 0.1 µM and < 0.1 µM.
For the compound `CCS(=O)(=O)c1ccc([C@H](COCC(=O)O)NC(=O)c2ccc3c(c2)nc(C(F)(F)F)n3Cc2cccc3c2OC(F)(F)O3)cc1` [I-166, (R)-2-(2-(1-((2,2-difluorobenzo[d][1,3]dioxol-4-yl)methyl)-2-(trifluoromethyl)-1H-benzo[d]imidazole-5-carboxamido)-2-(4-(ethylsulfonyl)phenyl)ethoxy)acetic acid], the IC50 in assay [1] was > 1 µM. Moreover, in assay [2], the inhibition constant Ki is < 0.1 µM.
Consider `CNC(=O)CS(=O)(=O)c1ccc(CNC(=O)c2ccc3c(c2)nc(C(F)(F)F)n3Cc2cccc3c2OC(F)(F)O3)cc1` [I-169, 1-((2,2-difluorobenzo[d][1,3]dioxol-4-yl)methyl)-N-(4-((2-(methylamino)-2-oxoethyl)sulfonyl)benzyl)-2-(trifluoromethyl)-1H-benzo[d]imidazole-5-carboxamide], for which, in assay [1], the IC50 is < 0.1 µM. In addition, the inhibition constant Ki in assay [2] is < 0.1 µM.
Regarding `CCS(=O)(=O)c1ccc(CNC(=O)c2ccc3c(c2)nc(C2CC2)n3Cc2cccc3c2OC(C)(C)C3)cc1` [I-118, 2-cyclopropyl-1-((2,2-dimethyl-2,3-dihydrobenzofuran-7-yl)methyl)-N-(4-(ethylsulfonyl)benzyl)-1H-benzo[d]imidazole-5-carboxamide], in assay [1], the concentration for half-maximal inhibition (IC50) is > 1 µM. For the same compound, in assay [2], the Ki was < 0.1 µM.
The like results for `CCS(=O)(=O)c1ccc([C@H](CO)NC(=O)c2ccc3c(c2)nc(C2CC2)n3Cc2cccc3c2OC(C)(C)C3)cc1` [I-101, (R)-2-cyclopropyl-1-((2,2-dimethyl-2,3-dihydrobenzofuran-7-yl)methyl)-N-(1-(4-(ethylsulfonyl)phenyl)-2-hydroxyethyl)-1H-benzo[d]imidazole-5-carboxamide] were, in that order, > 1 µM and < 0.1 µM.
In the same order, the values of `CS(=O)(=O)N1CCC(CNC(=O)c2ccc3c(c2)nc(C(F)(F)F)n3Cc2cccc3c2OC(F)(F)O3)CC1` [I-71, 1-((2,2-difluorobenzo[d][1,3]dioxol-4-yl)methyl)-N-((1-(methylsulfonyl)piperidin-4-yl)methyl)-2-(trifluoromethyl)-1H-benzo[d]imidazole-5-carboxamide] are < 0.1 µM and < 0.1 µM.
Take `CS(=O)(=O)c1ccc([C@H](CO)NC(=O)c2ccc3c(c2)nc(C(F)F)n3Cc2cccc3c2OC(F)(F)O3)cc1` [I-23.1, (R)-1-((2,2-difluorobenzo[d][1,3]dioxol-4-yl)methyl)-2-(difluoromethyl)-N-(2-hydroxy-1-(4-(methylsulfonyl)phenyl)ethyl)-1H-benzo[d]imidazole-5-carboxamide]: the IC50 in assay [1] was < 0.1 µM. For the same compound, the inhibitory constant (Ki) in assay [2] was < 0.1 µM.
Regarding `CS(=O)(=O)c1ccc([C@H](CO)NC(=O)c2ccc3c(c2)nc(C(F)(F)F)n3Cc2cccc3c2OC(F)(F)O3)cc1` [I-20.1, (R)-1-((2,2-difluorobenzo[d][1,3]dioxol-4-yl)methyl)-N-(2-hydroxy-1-(4-(methylsulfonyl)phenyl)ethyl)-2-(trifluoromethyl)-1H-benzo[d]imidazole-5-carboxamide], the IC50 in assay [1] is < 0.1 µM. The inhibition constant (Ki) in assay [2] is < 0.1 µM.
`CCS(=O)(=O)c1ccc(CNC(=O)c2ccc3c(c2)nc(C(=O)OC)n3Cc2cccc3c2OC(F)(F)O3)cc1` [I-173, methyl 1-((2,2-difluorobenzo[d][1,3]dioxol-4-yl)methyl)-5-((4-(ethylsulfonyl)benzyl)carbamoyl)-1H-benzo[d]imidazole-2-carboxylate] yielded a half-inhibitory concentration (IC50) in assay [1] of 0.1 to 1 µM. For the same compound, the Ki in assay [2] was < 0.1 µM.
In the same order, the values of `CCS(=O)(=O)c1ccc(CNC(=O)c2ccc3c(c2)nc(C(F)(F)F)n3Cc2cccc3nn(C)cc23)cc1` [I-143, N-(4-(ethylsulfonyl)benzyl)-1-((2-methyl-2H-indazol-4-yl)methyl)-2-(trifluoromethyl)-1H-benzo[d]imidazole-5-carboxamide] are 0.1 to 1 µM and < 0.1 µM.
The like results for `O=C(NCc1ccc(S(=O)(=O)CCO)cc1)c1ccc2c(c1)nc(C1(F)CC1)n2Cc1cccc2c1OC(F)(F)O2` [I-41, 1-((2,2-difluorobenzo[d][1,3]dioxol-4-yl)methyl)-2-(1-fluorocyclopropyl)-N-(4-((2-hydroxyethyl)sulfonyl)benzyl)-1H-benzo[d]imidazole-5-carboxamide] were, in that order, < 0.1 µM and < 0.1 µM.
`CCS(=O)(=O)c1ccc(CNC(=O)c2ccc3c(c2)nc(C2CC2)n3Cc2ccc(OC(F)(F)F)cc2)cc1` [I-104, 2-cyclopropyl-N-(4-(ethylsulfonyl)benzyl)-1-(4-(trifluoromethoxy)benzyl)-1H-benzo[d]imidazole-5-carboxamide]: the IC50 in assay [1] was > 1 µM. Also, the Ki in assay [2] is < 0.1 µM.
Consider `CCS(=O)(=O)c1ccc(CNC(=O)c2ccc3c(c2)nc(C2CC2)n3Cc2cccc3c2OC(F)(F)O3)nc1` [I-64, 2-cyclopropyl-1-((2,2-difluorobenzo[d][1,3]dioxol-4-yl)methyl)-N-((5-(ethylsulfonyl)pyridin-2-yl)methyl)-1H-benzo[d]imidazole-5-carboxamide], for which the IC50 in assay [1] was < 0.1 µM. Besides, the Ki in assay [2] was < 0.1 µM.
For `NS(=O)(=O)c1ccc(CNC(=O)c2ccc3c(c2)nc(C(F)(F)F)n3Cc2cccc3c2OC(F)(F)O3)cc1` [I-51, 1-((2,2-difluorobenzo[d][1,3]dioxol-4-yl)methyl)-N-(4-sulfamoylbenzyl)-2-(trifluoromethyl)-1H-benzo[d]imidazole-5-carboxamide], the concentration for half-maximal inhibition (IC50) in assay [1] fell in the range of 0.1 to 1 µM. Also, the inhibitory constant (Ki) in assay [2] is < 0.1 µM.
